Test results taken from ChEMBL document CHEMBL5543099 (Eur J Med Chem, 2024).
In brackets after ≈: the same amount, converted by molar mass. Activity calls are given as the source filed them. No cut-off for these calls is given here.

How the values were obtained:
Staphylococcus aureus [1] = assay: Antibacterial activity against Staphylococcus aureus assessed as inhibition of bacterial growth by measuring fold change in MIC incubated for 6 hrs in presence of 50% fetal bovine serum by CLSI protocol based Muller Hinton broth assay; assay type: functional
Staphylococcus aureus [2] = assay: Antibacterial activity against Staphylococcus aureus assessed as inhibition of bacterial growth incubated for 6 hrs in presence of defibrinated sheep 50% plasma by CLSI protocol based Muller Hinton broth assay; assay type: functional
Staphylococcus aureus [3] = assay: Antibacterial activity against Staphylococcus aureus assessed as inhibition of bacterial growth incubated for 6 hrs in presence of 50% fetal bovine plasma by CLSI protocol based Muller Hinton broth assay; assay type: functional
Staphylococcus aureus [4] = assay: Antibacterial activity against Staphylococcus aureus assessed as inhibition of bacterial growth incubated for 6 hrs in presence of 50% fetal bovine serum by CLSI protocol based Muller Hinton broth assay; assay type: functional
Staphylococcus aureus [5] = assay: Antibacterial activity against Staphylococcus aureus assessed as inhibition of bacterial growth by measuring fold change in MIC incubated for 6 hrs in presence of defibrinated sheep 50% plasma by CLSI protocol based Muller Hinton broth assay; assay type: functional
Staphylococcus aureus [6] = assay: Antibacterial activity against Staphylococcus aureus assessed as inhibition of bacterial growth by measuring fold change in MIC incubated for 6 hrs in presence of 50% fetal bovine plasma by CLSI protocol based Muller Hinton broth assay; assay type: functional
[7] = Cytotoxicity against human SW620 cells assessed as cell survival rate at 64 microg/ml incubated for 48 hrs by CCK8 assay relative to control; assay type: toxicity, cell-based, SW-620; settings: at 64 µg/mL, read-out: Activity
Cell membrane [8] = assay: Induction of Cytoplasmic membrane depolarization in Staphylococcus aureus at 16 microg/ml incubated for 15 mins by DiSC3(5) dye based fluorescence microplate reader; assay type: cell membranes; settings: dose 16.0 µg/ml
Cell membrane [9] = assay: Induction of cell membrane damage in Escherichia coli assessed as nucleic acid leakage at 4 times of MIC incubated for 2 hrs by n ultra-micro-volume spectrophotometric analysis; assay type: cell membranes
[10] = Cytotoxicity against rat HBZY-1 cells assessed as cell survival rate at 64 microg/ml incubated for 48 hrs by CCK8 assay relative to control; assay type: toxicity, cell-based; settings: at 64 µg/mL, read-out: Activity
[11] = system: Stenotrophomonas maltophilia; assay: Antimicrobial activity against Stenotrophomonas maltophilia ATCC 17808 assessed as inhibition of bacterial growth incubated for 16 to 18 hrs by CLSI protocol based Muller Hinton broth assay; assay type: functional; settings: time 16-18 hrs
Cell membrane [12] = assay: Induction of inner membrane permeabilization in Staphylococcus aureus assessed as fluorescence intensity at 16 microg/ml incubated for 15 mins by PI staining based microplate reader; assay type: cell membranes; settings: dose 16.0 µg/ml
Enterococcus faecalis = assay: Antimicrobial activity against Enterococcus faecalis ATCC 29212 assessed as inhibition of bacterial growth incubated for 16 to 18 hrs by CLSI protocol based Muller Hinton broth assay; assay type: functional; settings: time 16-18 hrs
Escherichia coli = assay: Antimicrobial activity against Escherichia coli ATCC 25922 assessed as inhibition of bacterial growth incubated for 16 to 18 hrs by CLSI protocol based Muller Hinton broth assay; assay type: functional; settings: time 16-18 hrs
Staphylococcus aureus [13] = assay: Antimicrobial activity against Staphylococcus aureus ATCC 29213 assessed as inhibition of bacterial growth incubated for 16 to 18 hrs by CLSI protocol based Muller Hinton broth assay; assay type: functional; settings: time 16-18 hrs
[14] = Hemolytic activity in defibrinated sheep RBC incubated for 1 hrs; assay type: toxicity, cell-based, Ovis aries, Erythrocyte; settings: defibrinated sheep red blood cells
Cell membrane [15] = assay: Induction of inner membrane permeabilization in Staphylococcus aureus assessed as increase in fluorescence intensity at 16 microg/ml incubated for 15 mins by PI staining based microplate reader; assay type: cell membranes; settings: dose 16.0 µg/ml
Staphylococcus aureus [16] = assay: Antibacterial activity against Staphylococcus aureus assessed as inhibition of bacterial growth incubated for 16 to 20 hrs by CLSI protocol based broth microdilution method; assay type: functional; settings: time 16-20 hrs
[17] = Hemolytic activity in sheep RBC assessed as hemolysis incubated for 1 hrs by absorbance based assay; assay type: toxicity, cell-based, Ovis aries, Erythrocyte; settings: sheep red blood cells
Staphylococcus aureus [18] = assay: Antibacterial activity against Staphylococcus aureus assessed as reduction in bacterial colony at 8 times of MIC incubated for 8 hrs by time-kill kinetics assay; assay type: functional, organism-based

Compound | MIC [11] [µg/mL] | MIC (Enterococcus faecalis) [µg/mL] | MIC (Escherichia coli) [µg/mL] | MIC (Staphylococcus aureus [13]) [µg/mL] | HC50 at 1 h [14] [µg/mL] | further results
COLISTIN |  |  |  |  |  | fold change (FC) (Staphylococcus aureus [1]): 4; MIC (Staphylococcus aureus [2]): 16 µg/mL; MIC (Staphylococcus aureus [3]): 16 µg/mL; MIC (Staphylococcus aureus [4]): 8 µg/mL; fold change (FC) (Staphylococcus aureus [5]): 4; fold change (FC) (Staphylococcus aureus [6]): 2
CC[C@H](C)[C@H](NC(=O)CN)C(=O)NCC(=O)N[C@@H](C)C(=O)N[C@H](C(=O)N[C@@H](CC(C)C)C(=O)N[C@@H](CCCCN)C(=O)N[C@H](C(=O)N[C@@H](CC(C)C)C(=O)N[C@H](C(=O)N[C@H](C(=O)NCC(=O)N[C@@H](CC(C)C)C(=O)N1CCC[C@H]1C(=O)N[C@@H](C)C(=O)N[C@@H](CC(C)C)C(=O)N[C@H](C(=O)N[C@@H](CO)C(=O)N[C@@H](Cc1c[nH]c2ccccc12)C(=O)N[C@H](C(=O)N[C@@H](CCCCN)C(=O)N[C@@H](CCCNC(=N)N)C(=O)N[C@@H](CCCCN)C(=O)N[C@@H](CCCNC(=N)N)C(=O)N[C@@H](CCC(N)=O)C(=O)N[C@@H](CCC(N)=O)C(N)=O)[C@@H](C)CC)[C@@H](C)CC)[C@@H](C)O)[C@@H](C)O)C(C)C)C(C)C [MELITTIN] | 8 (≈ 2.81 µM) | 2 (≈ 0.703 µM) |  |  |  | viability at 48 h, 64 microg/ml [7]: 5.7%; Activity (Cell membrane [8]): Active; fold change (FC) (Staphylococcus aureus [1]): 32; Activity (Cell membrane [9]): Active; viability at 48 h, 64 microg/ml [10]: 1.4%; Flu intensity (Cell membrane [12]): 600; fold change (FC) (Staphylococcus aureus [5]): 32; fold change (FC) (Staphylococcus aureus [6]): 32
CCCCCCCCCNC(=O)C[n+]1cccc(C(=O)N2CCN(c3cc4c(cc3F)c(=O)c(C(=O)O)cn4C3CC3)CC2)c1.[Br-] | 32 | 8 | 8 | 8 | > 1280 | 
C=C[C@]1(C)C[C@@H](OC(=O)CSCCN(CC)CC)[C@]2(C)[C@H](C)CC[C@]3(CCC(=O)[C@H]32)[C@@H](C)[C@@H]1O [TIAMULIN] |  |  |  |  |  | viability at 48 h, 64 microg/ml [7]: 32.9%; viability at 48 h, 64 microg/ml [10]: 85.9%
O=C(O)c1cn(C2CC2)c2cc(N3CCNCC3)c(F)cc2c1=O |  |  |  |  |  | Activity (Cell membrane [8]): inactive; Activity (Cell membrane [15]): inactive
CCCNC(=O)C[n+]1ccc(C(=O)N2CCN(c3cc4c(cc3F)c(=O)c(C(=O)O)cn4C3CC3)CC2)cc1.[Br-] | > 64 | 16 | 16 | 16 | > 1280 | 
CCCCCNC(=O)C[n+]1cccc(C(=O)N2CCN(c3cc4c(cc3F)c(=O)c(C(=O)O)cn4C3CC3)CC2)c1.[Br-] | > 64 | 64 | 32 | 32 | > 1280 | 
CCCCCNC(=O)C[n+]1ccc(C(=O)N2CCN(c3cc4c(cc3F)c(=O)c(C(=O)O)cn4C3CC3)CC2)cc1.[Br-] | 64 | 8 | 16 | 16 | > 1280 | 
C=C[C@]1(C)C[C@@H](OC(=O)CS[C@@H]2C[C@H]3CC[C@@H](C2)N3C)[C@]2(C)[C@H](C)CC[C@]3(CCC(=O)[C@H]32)[C@@H](C)[C@@H]1O [RETAPAMULIN] |  |  |  |  |  | viability at 48 h, 64 microg/ml [7]: 4.7%; viability at 48 h, 64 microg/ml [10]: 1.7%
CCCCCCCCCNC(=O)C[n+]1ccc(C(=O)N2CCN(c3cc4c(cc3F)c(=O)c(C(=O)O)cn4C3CC3)CC2)cc1.[Br-] | 16 | 2 | 4 | 4 | > 1280 | 
CCCCCCNC(=O)C[n+]1cccc(C(=O)N2CCN(c3cc4c(cc3F)c(=O)c(C(=O)O)cn4C3CC3)CC2)c1.[Br-] | 64 | 32 | 16 | 16 | > 1280 | 
GENTAMICIN |  |  |  |  |  | Activity (Cell membrane [8]): inactive
CCCCCCCNC(=O)C[N+](C)(C)CCCOc1ccc(OCCC[N+](C)(C)CC(=O)NCCCCCCC)cc1.[Br-].[Br-] |  |  |  |  |  | MIC (Staphylococcus aureus [16]): 0.5 µg/mL; HC50 at 1 h [17]: 1220 µg/mL
O=C(O)c1cn(C2CC2)c2cc(N3CCN(C(=O)C[n+]4ccc(-c5ccccc5)cc4)CC3)c(F)cc2c1=O.[Br-] | 16 | 8 | 16 | 16 | > 1280 | 
CCCCCCCNC(=O)C[n+]1ccc(C(=O)N2CCN(c3cc4c(cc3F)c(=O)c(C(=O)O)cn4C3CC3)CC2)cc1.[Br-] | 32 | 2 | 4 | 4 | > 1280 | 
CCCNC(=O)C[n+]1cccc(C(=O)N2CCN(c3cc4c(cc3F)c(=O)c(C(=O)O)cn4C3CC3)CC2)c1.[Br-] | > 64 | 64 | 16 | 64 | > 1280 | 
O=C(O)c1cn(C2CC2)c2cc(N3CCN(C(=O)c4cc[n+](Cc5ccc(C(F)(F)F)cc5)cc4)CC3)c(F)cc2c1=O.[Br-] | 4 | 8 | 4 | 16 | > 1280 | 
CCCCNC(=O)C[n+]1ccc(C(=O)N2CCN(c3cc4c(cc3F)c(=O)c(C(=O)O)cn4C3CC3)CC2)cc1.[Br-] | 64 | 16 | 16 | 16 | > 1280 | 
CCCCCCCNC(=O)C[n+]1cccc(C(=O)N2CCN(c3cc4c(cc3F)c(=O)c(C(=O)O)cn4C3CC3)CC2)c1.[Br-] | 64 | 8 | 8 | 8 | > 1280 | 
O=C(O)c1cn(C2CC2)c2cc(N3CCN(C(=O)c4cc[n+](Cc5ccc(Cl)cc5)cc4)CC3)c(F)cc2c1=O.[Br-] | 8 | 8 | 8 | 16 | > 1280 | 
CCCCNC(=O)C[n+]1cccc(C(=O)N2CCN(c3cc4c(cc3F)c(=O)c(C(=O)O)cn4C3CC3)CC2)c1.[Br-] | > 64 | > 64 | 32 | 64 | > 1280 | 
CC(C)(C)c1ccc(C[n+]2ccc(C(=O)N3CCN(c4cc5c(cc4F)c(=O)c(C(=O)O)cn5C4CC4)CC3)cc2)cc1.[Br-] | 4 | 4 | 4 | 8 | > 1280 | 
O=C(O)c1cn(C2CC2)c2cc(N3CCN(C(=O)c4cc[n+](Cc5ccc(F)cc5)cc4)CC3)c(F)cc2c1=O.[Br-] | 4 | 8 | 4 | 16 | > 1280 | 
O=C(O)c1cn(C2CC2)c2cc(N3CCN(C(=O)c4cc[n+](Cc5ccc(-c6ccccc6)cc5)cc4)CC3)c(F)cc2c1=O.[Br-] | 4 | 32 | 4 | 4 | > 1280 | 
CCCCCCCCNC(=O)C[n+]1cccc(C(=O)N2CCN(c3cc4c(cc3F)c(=O)c(C(=O)O)cn4C3CC3)CC2)c1.[Br-] | 16 | 8 | 8 | 8 | > 1280 | 
C[C@@H](O)[C@H]1C(=O)N2C(C(=O)O)=C(S[C@@H]3CN[C@H](C(=O)N(C)C)C3)[C@H](C)[C@H]12 [MEROPENEM] | 0.06 (≈ 0.156 µM) |  | 0.03 (≈ 0.0782 µM) |  |  | 
CN[C@H](CC(C)C)C(=O)N[C@H]1C(=O)N[C@@H](CC(N)=O)C(=O)N[C@H]2C(=O)N[C@H]3C(=O)N[C@H](C(=O)N[C@H](C(=O)O)c4cc(O)cc(O)c4-c4cc3ccc4O)[C@H](O)c3ccc(c(Cl)c3)Oc3cc2cc(c3O[C@@H]2O[C@H](CO)[C@@H](O)[C@H](O)[C@H]2O[C@H]2C[C@](C)(N)[C@H](O)[C@H](C)O2)Oc2ccc(cc2Cl)[C@H]1O [VANCOMYCIN] |  | 2 (≈ 1.38 µM) |  |  |  | Activity (Staphylococcus aureus [18]): Active
O=C(O)c1cn(C2CC2)c2cc(N3CCN(C(=O)c4cc[n+](Cc5ccccc5)cc4)CC3)c(F)cc2c1=O.[Br-] | 4 | 8 | 8 | 16 | > 1280 | 
CCCCCCNC(=O)C[n+]1ccc(C(=O)N2CCN(c3cc4c(cc3F)c(=O)c(C(=O)O)cn4C3CC3)CC2)cc1.[Br-] | 16 | 8 | 8 | 8 | > 1280 | 
